Source: paper PMC8950663, “Cyanobacteria Secondary Metabolites as Biotechnological Ingredients in Natural Anti-Aging Cosmetics: Potential to Overcome Hyperpigmentation, Loss of Skin Density and UV Radiation-Deleterious Effects” (Marine Drugs, 2022)

Target: T1, hyaluronidase (HAase)
T1 construct: gene SPAM1
Test: colorimetric DMAB end-point assay of hyaluronic acid degradation, […] nm
Format: biochemical
Conditions: hyaluronic acid substrate (0.7 mg/mL stock), 37 °C, 30 min; positive control

O=C(O)c1cc(=O)c2c(OCC(O)COc3cccc4oc(C(=O)O)cc(=O)c34)cccc2o1 [di-sodium cromoglicate]
IC50: 1105 µg/mL
